Laboratory results reported in patent US4800197A, “Anti-acne composition” (Richardson-Vicks Inc., priority 1987, dated 1989).

Assays:
corneocytes = details: C. Huber et al, Arch. Derm. Res. 257, 293-297, 1977; cited from earlier work
[1] = in vitro human skin
Source text: Excised human skin samples are obtained at autopsy and maintained under sterile conditions until used. […] The diffusion cell is composed of two compartments: the lower chamber is made of Plexiglass and the top is made of Teflon. The skin sample is mounted with the stratum corneum side exposed to the air and held on to the Teflon top with a rubber 0-ring; a tight seal between the two compartments is achieved by tightening the set screws. The cell has an effective diffusional area of 5.08 cm^2 and the dermis side of the skin is constantly bathed by filling the receptor compartment with 40 ml of isotonic saline. Adequate mixing of the receptor phase is accomplished with a magnet driven Teflon-coated stir bar moved by appropriate motor means located below the cell bath. The whole diffusion cell assembly is immersed in a water bath maintained at 30° C. using a circulating water bath. […] At hourly intervals over a period of seven hours, a one milliliter sample of the receptor fluid is withdrawn and analyzed for radioactive content by liquid scintillation counting means (Packard Tri-Carb model No. 460). […]
At the end of the seven hour period the skin sample is removed from the diffusion cell, trimmed of excess skin and glued with cyanoacrylate glue to a glass plate. […] Ten successive adhesive tape strippings are then taken and the salicylic acid content per strip determined. […]

Compound | reduction in intercellular cohesion of the corneocytes (in words) (corneocytes) | deposition of salicylic acid in the stratum corneum (in words) [1] | rate of penetration of salicylic acid (in words) [1]
O=C(O)c1ccccc1O [Salicylic acid] | causes a reduction in intercellular cohesion of the corneocytes |  | 
CCCCCCCCCCCCOS(=O)(=O)[O-].[Na+] [surfactant D, sodium lauryl sulfate] |  | marked decrease in deposition of salicylic acid in the stratum corneum | marked increase in the penetration rate through the skin
